From PubChem BioAssay AID180 (DTP/NCI, 2004)
“And” between values parts separate entries of the source, which are not always exact repeats. Identical values can stand only once.

System: BDF1 mice, Adenocarcinoma 755 s.c., tumor weight T/C
Experiment: NCI In Vivo Anticancer Drug Screen. Data for tumor model Adenocarcinoma 755 (subcutaneous) in B6D2F1 (BDF1) mice
Conditions: endpoint: mean tumor weight, schedule: Q01DX011 (ip), higher = larger tumour
In short: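 Tumor-bearing mice receive test compound while controls get vehicle alone. Antitumor effect is scored from survival or tumor dimensions as a T/C quotient.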

[1] = dose: 50.0 mg/kg/injection, vehicle: methylcellulose (MC)
[2] = dose: 100.0 mg/kg/injection, vehicle: methylcellulose (MC)
[3] = dose: 30.0 mg/kg/injection, vehicle: carboxymethylcellulose (CMC)

Q: For `CN1CCN(CCCN2c3ccccc3Sc3ccc(C(F)(F)F)cc32)CC1`, which T/C (dose: 22.0 mg/kg/injection, vehicle: saline) is on record?
A: 32 % of control

Q: `Nc1nc(NC2CCCCC2)cc(=O)[nH]1` was tested. Which T/C [1] did it give?
A: 56 % of control

Q: What about the T/C [2] of the same molecule?
A: 55 % of control

Q: What about the T/C (dose: 200.0 mg/kg/injection, vehicle: methylcellulose (MC)) of the same molecule?
A: 51 % of control

Q: And the T/C (dose: 400.0 mg/kg/injection, vehicle: methylcellulose (MC))?
A: 33 % of control

Q: How did the T/C [3] turn out when `Nc1[nH]c(=O)[nH]c(=O)c1C(=O)CCl` was run?
A: 77 % of control

Q: What does the source list for `CCC(C)n1ncc2c(N(C)C)ncnc21` (stereo not drawn)?
A: T/C (dose: 16.25 mg/kg/injection, vehicle: saline): 54 % of control and 73 % of control; T/C (dose: 32.5 mg/kg/injection, vehicle: saline): 42 % of control and 46 % of control; T/C (dose: 65.0 mg/kg/injection, vehicle: saline): 6 % of control

Q: How did the T/C (dose: 25.0 mg/kg/injection, vehicle: methylcellulose (MC)) turn out when `Cc1ccc(CNc2ncnc3[nH]ncc23)cc1C` was run?
A: 95 % of control

Q: And the T/C [1]?
A: 72 % of control

Q: What about the T/C [2] of the same molecule?
A: 64 % of control

Q: And the T/C (dose: 300.0 mg/kg/injection, vehicle: methylcellulose (MC))?
A: 68 % of control

Q: `OC1c2cc(Cl)ccc2-c2c(Cl)cc(Cl)cc21` (stereo not drawn) was tested. Which T/C (dose: 50.0 mg/kg/injection, vehicle: other) did it give?
A: 37 % of control

Q: And the T/C (dose: 100.0 mg/kg/injection, vehicle: other)?
A: 41 % of control

Q: What about the T/C (dose: 200.0 mg/kg/injection, vehicle: other) of the same molecule?
A: 19 % of control

Q: And the T/C (dose: 400.0 mg/kg/injection, vehicle: other)?
A: 10 % of control

Q: Which T/C [3] does the source give for `CSc1nc(=O)cc2[nH]c(O)cn12` here?
A: 90 % of control

Q: What about the T/C (dose: 60.0 mg/kg/injection, vehicle: carboxymethylcellulose (CMC)) of the same molecule?
A: 98 % of control

Q: What about the T/C (dose: 120.0 mg/kg/injection, vehicle: carboxymethylcellulose (CMC)) of the same molecule?
A: 50 % of control

Q: And the T/C (dose: 240.0 mg/kg/injection, vehicle: carboxymethylcellulose (CMC))?
A: 118 % of control

Q: How did the T/C (dose: 18.75 mg/kg/injection, vehicle: carboxymethylcellulose (CMC)) turn out when `O=C(Nc1ccc(NC(=O)Nc2cccc(C3=NCCN3)c2)cc1)Nc1cccc(C2=NCCN2)c1` was run?
A: 85 % of control

Q: And the T/C (dose: 37.5 mg/kg/injection, vehicle: carboxymethylcellulose (CMC))?
A: 73 % of control

Q: And the T/C (dose: 75.0 mg/kg/injection, vehicle: carboxymethylcellulose (CMC))?
A: 73 % of control

Q: What about the T/C (dose: 150.0 mg/kg/injection, vehicle: carboxymethylcellulose (CMC)) of the same molecule?
A: 112 % of control

Q: For `Nc1ncnc2c1ncn2C1CCCO1` (stereo not drawn), which T/C (dose: 18.7 mg/kg/injection, vehicle: saline) is on record?
A: 111 % of control

Q: And the T/C (dose: 37.5 mg/kg/injection, vehicle: saline)?
A: 120 % of control

Q: And the T/C (dose: 75.0 mg/kg/injection, vehicle: saline)?
A: 119 % of control

Q: And the T/C (dose: 150.0 mg/kg/injection, vehicle: saline)?
A: 52 % of control

Q: What about the T/C (dose: 300.0 mg/kg/injection, vehicle: saline) of the same molecule?
A: 23 % of control

Q: What does the source list for `Nc1nc(=S)c2ncn(C3OC(COC(=O)c4ccc(Cl)cc4)C(OC(=O)c4ccc(Cl)cc4)C3OC(=O)c3ccc(Cl)cc3)c2[nH]1` (stereo not drawn)?
A: T/C (dose: 0.88 mg/kg/injection, vehicle: carboxymethylcellulose (CMC)): 94 % of control; T/C (dose: 1.75 mg/kg/injection, vehicle: carboxymethylcellulose (CMC)): 65 % of control; T/C (dose: 3.5 mg/kg/injection, vehicle: carboxymethylcellulose (CMC)): 102 % of control; T/C (dose: 6.0 mg/kg/injection, vehicle: carboxymethylcellulose (CMC)): 72 % of control; T/C (dose: 10.0 mg/kg/injection, vehicle: carboxymethylcellulose (CMC)): 6 % of control; T/C (dose: 12.0 mg/kg/injection, vehicle: carboxymethylcellulose (CMC)): 23 % of control; T/C (dose: 16.0 mg/kg/injection, vehicle: carboxymethylcellulose (CMC)): 1 % of control; T/C (dose: 50.0 mg/kg/injection, vehicle: carboxymethylcellulose (CMC)): 2 % of control and 3 % of control
